Tests used:
[1] = biological target: human Gal-1 (hGal-1); assay: Competitive binding assay: binding of biotinylated hGal-1 to microplate-adsorbed asialofetuin (ASF); conditions: Activities on hGal-1; mean values of several measurements
Procedure: (§1) Evaluation of Compound Inhibitory Activity (IC50)
(§2) The inhibitory activity of compounds is determined in competitive binding assays. This spectrophotometric assay measures the binding of biotinylated human Gal-3 (hGal-3) or human Gal-1 (hGal-1), respectively, to a microplate-adsorbed glycoprotein, asialofetuin (ASF) (Proc Natl Acad Sci USA. 2013 Mar. 26; 110(13):5052-7.). Alternatively, and preferably, a human Gal-1 version in which all six cysteines are substituted by serines may be used.
(§3) Briefly, compounds are serially diluted in DMSO (working dilutions). ASF-coated 384 well plates are supplemented with 22.8 μL/well of biotinylated hGal-3 or hGal-1 in assay buffer (i.e. 300-1000 ng/mL biotinylated hGal-3 or hGal-1) to which 1.2 μL of compound working dilutions are added and mixed.
(§4) Plates are incubated for 3 hours at 4° C., then washed with cold assay buffer (3×50 uL), incubated for 1 hour with 25 μL/well of a streptavidin-peroxidase solution (diluted in assay buffer to 80 ng/mL) at 4° C., followed by further washing steps with assay buffer (3×50 uL). Finally, 25 μL/well of ABTS substrate is added.
(§5) The calculated IC50 values may fluctuate depending on the daily assay performance. Fluctuations of this kind are known to those skilled in the art. IC50 values from several measurements are given as mean values.

[2] = biological target: human Gal-3 (hGal-3) (Homo sapiens (Human), UniProt P17931); assay: Competitive binding assay: binding of biotinylated hGal-3 to microplate-adsorbed asialofetuin (ASF); conditions: Activity on hGal-3; mean values of several measurements
Chain of human Gal-3 (hGal-3) (P17931 whole entry): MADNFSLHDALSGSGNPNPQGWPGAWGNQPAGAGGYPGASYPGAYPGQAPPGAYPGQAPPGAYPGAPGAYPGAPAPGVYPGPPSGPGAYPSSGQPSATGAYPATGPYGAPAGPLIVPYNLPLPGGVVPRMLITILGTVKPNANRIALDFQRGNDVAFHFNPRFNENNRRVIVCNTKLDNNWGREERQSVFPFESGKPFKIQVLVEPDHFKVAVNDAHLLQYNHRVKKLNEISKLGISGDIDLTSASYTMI
Procedure: as §1, §2, §3, §4, §5

Chain of human Gal-1 (hGal-1) (P09382 2-135 limits assumed): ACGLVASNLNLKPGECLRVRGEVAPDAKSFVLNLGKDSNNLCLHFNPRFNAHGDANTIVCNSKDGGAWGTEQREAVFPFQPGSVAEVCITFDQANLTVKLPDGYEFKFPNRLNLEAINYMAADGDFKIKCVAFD

| IC50 [1] [nM] | IC50 [2] [nM] | Compound |
| --- | --- | --- |
| 3990 | 230 | CC(=O)O[C@@H]1[C@@H](n2cc(-c3cc(F)c(F)c(F)c3)nn2)[C@@H](O)[C@@H](CO)O[C@@H]1CC1=NOC(C2CCN(C(C)=O)CC2)C1 (mixture of isomers) [Example 3.23, (2R,3R,4S,5R,6R)-2-(((RS)-5-(1-acetylpiperidin-4-yl)-4,5-dihydroisoxazol-3-yl)methyl)-5-hydroxy-6-(hydroxymethyl)-4-(4-(3,4,5-trifluorophenyl)-1H-1,2,3-triazol-1-yl)tetrahydro-2H-pyran-3-yl acetate] |
| 8140 | 1160 | CO[C@@H]1[C@@H](n2cc(-c3cc(F)c(F)c(F)c3)nn2)[C@@H](O)[C@@H](CO)O[C@@H]1CC1=NOC(C2CCNCC2)C1 (mixture of isomers) [Example 3.36, (2R,3R,4S,5R,6R)-2-(hydroxymethyl)-5-methoxy-6-(((RS)-5-(piperidin-4-yl)-4,5-dihydroisoxazol-3-yl)methyl)-4-(4-(3,4,5-trifluorophenyl)-1H-1,2,3-triazol-1-yl)tetrahydro-2H-pyran-3-ol] |
| 1210 | 310 | CO[C@@H]1[C@@H](n2cc(-c3cc(F)c(F)c(F)c3)nn2)[C@@H](O)[C@@H](CO)O[C@@H]1CC1=NOC(C2CCN(C(C)=O)CC2)C1 (mixture of isomers) [Example 3.40, 1-(4-((RS)-3-(((2R,3R,4S,5R,6R)-5-hydroxy-6-(hydroxymethyl)-3-methoxy-4-(4-(3,4,5-trifluorophenyl)-1H-1,2,3-triazol-1-yl)tetrahydro-2H-pyran-2-yl)methyl)-4,5-dihydroisoxazol-5-yl)piperidin-1-yl)ethan-1-one] |
| 2510 | 190 | CCC(C)C(=O)N1CCC(c2cc(C[C@H]3O[C@H](CO)[C@H](O)[C@H](n4cc(-c5cc(F)c(F)c(F)c5)nn4)[C@H]3OC)no2)CC1 (mixture of isomers) [Example 3.53, (RS)-1-(4-(3-(((2R,3R,4S,5R,6R)-5-hydroxy-6-(hydroxymethyl)-3-methoxy-4-(4-(3,4,5-trifluorophenyl)-1H-1,2,3-triazol-1-yl)tetrahydro-2H-pyran-2-yl)methyl)isoxazol-5-yl)piperidin-1-yl)-2-methylbutan-1-one] |
| 2990 | 90 | CO[C@@H]1[C@@H](n2cc(-c3cc(F)c(F)c(F)c3)nn2)[C@@H](O)[C@@H](CO)O[C@@H]1Cc1cc(C2CCN([S+]([O-])C(C)(C)C)CC2)on1 (mixture of isomers) [Example 3.55, (2R,3R,4S,5R,6R)-6-((5-(1-((RS)-tert-butylsulfinyl)piperidin-4-yl)isoxazol-3-yl)methyl)-2-(hydroxymethyl)-5-methoxy-4-(4-(3,4,5-trifluorophenyl)-1H-1,2,3-triazol-1-yl)tetrahydro-2H-pyran-3-ol] |
| 610 | 20 | CO[C@@H]1[C@@H](n2cc(-c3cc(F)c(F)c(F)c3)nn2)[C@@H](O)[C@@H](CO)O[C@@H]1Cc1cc(C2CCN(S(=N)(=O)C(C)(C)C)CC2)on1 (mixture of isomers) [Example 3.56, (RS)-(2R,3R,4S,5R,6R)-2-(hydroxymethyl)-5-methoxy-6-((5-(1-(2-methylpropan-2-ylsulfonimidoyl)piperidin-4-yl)isoxazol-3-yl)methyl)-4-(4-(3,4,5-trifluorophenyl)-1H-1,2,3-triazol-1-yl)tetrahydro-2H-pyran-3-ol] |
| 1400 | 97 | CN=S(=O)(C(C)C)N1CCC(c2cc(C[C@H]3O[C@H](CO)[C@H](O)[C@H](n4cc(-c5cc(F)c(F)c(F)c5)nn4)[C@H]3OC)no2)CC1 (mixture of isomers) [Example 3.57, (RS)-(2R,3R,4S,5R,6R)-2-(hydroxymethyl)-5-methoxy-6-((5-(1-(N-methylpropan-2-ylsulfonimidoyl)piperidin-4-yl)isoxazol-3-yl)methyl)-4-(4-(3,4,5-trifluorophenyl)-1H-1,2,3-triazol-1-yl)tetrahydro-2H-pyran-3-ol] |
| 5280 | 1570 | COc1ccc(N2CC(C[C@H]3O[C@H](CO)[C@H](O)[C@H](n4cc(-c5cc(F)c(F)c(F)c5)nn4)[C@H]3OC)OC2=O)cc1 (mixture of isomers) [Example 5.01, (RS)-5-(((2R,3R,4S,5R,6R)-5-hydroxy-6-(hydroxymethyl)-3-methoxy-4-(4-(3,4,5-trifluorophenyl)-1H-1,2,3-triazol-1-yl)tetrahydro-2H-pyran-2-yl)methyl)-3-(4-methoxyphenyl)oxazolidin-2-one] |
| 3550 | 1560 | CO[C@@H]1[C@@H](n2cc(-c3cc(F)c(F)c(F)c3)nn2)[C@@H](O)[C@@H](CO)O[C@@H]1CC1CN(c2ccc(OC(F)F)cc2)C(=O)O1 (mixture of isomers) [Example 5.02, (RS)-3-(4-(difluoromethoxy)phenyl)-5-(((2R,3R,4S,5R,6R)-5-hydroxy-6-(hydroxymethyl)-3-methoxy-4-(4-(3,4,5-trifluorophenyl)-1H-1,2,3-triazol-1-yl)tetrahydro-2H-pyran-2-yl)methyl)oxazolidin-2-one] |
| 650 | 120 | CO[C@@H]1[C@@H](n2cc(-c3cc(F)c(F)c(F)c3)nn2)[C@@H](O)[C@@H](CO)O[C@@H]1CC1CN(C2CCN(C(C)=O)CC2)C(=O)O1 (mixture of isomers) [Example 5.03, (RS)-3-(1-acetylpiperidin-4-yl)-5-(((2R,3R,4S,5R,6R)-5-hydroxy-6-(hydroxymethyl)-3-methoxy-4-(4-(3,4,5-trifluorophenyl)-1H-1,2,3-triazol-1-yl)tetrahydro-2H-pyran-2-yl)methyl)oxazolidin-2-one] |
| 790 | 180 | CO[C@@H]1[C@@H](n2cc(-c3cc(F)c(F)c(F)c3)nn2)[C@@H](O)[C@@H](CO)O[C@@H]1CC1CN(C2CCN(S(C)(=O)=O)CC2)C(=O)O1 (mixture of isomers) [Example 5.04, (RS)-5-(((2R,3R,4S,5R,6R)-5-hydroxy-6-(hydroxymethyl)-3-methoxy-4-(4-(3,4,5-trifluorophenyl)-1H-1,2,3-triazol-1-yl)tetrahydro-2H-pyran-2-yl)methyl)-3-(1-(methylsulfonyl)piperidin-4-yl)oxazolidin-2-one] |
| 460 | 83 | CO[C@@H]1[C@@H](n2cc(-c3cc(F)c(F)c(F)c3)nn2)[C@@H](O)[C@@H](CO)O[C@@H]1CC1CN(C2CCN(C(=O)OC(C)(C)C)CC2)C(=O)O1 (mixture of isomers) [Example 5.09, tert-butyl 4-((RS)-5-(((2R,3R,4S,5R,6R)-5-hydroxy-6-(hydroxymethyl)-3-methoxy-4-(4-(3,4,5-trifluorophenyl)-1H-1,2,3-triazol-1-yl)tetrahydro-2H-pyran-2-yl)methyl)-2-oxooxazolidin-3-yl)piperidine-1-carboxylate] |
| 280 | 190 | CO[C@@H]1[C@@H](n2cc(-c3cc(F)c(F)c(F)c3)nn2)[C@@H](O)[C@@H](CO)O[C@@H]1CC1CN(C2CCN(C(=O)C(C)C)CC2)C(=O)O1 (mixture of isomers) [Example 5.10, (RS)-5-(((2R,3R,4S,5R,6R)-5-hydroxy-6-(hydroxymethyl)-3-methoxy-4-(4-(3,4,5-trifluorophenyl)-1H-1,2,3-triazol-1-yl)tetrahydro-2H-pyran-2-yl)methyl)-3-(1-isobutyrylpiperidin-4-yl)oxazolidin-2-one] |
| 1500 | 260 | CO[C@@H]1[C@@H](n2cc(-c3cc(F)c(F)c(F)c3)nn2)[C@@H](O)[C@@H](CO)O[C@@H]1CC1CN(C2CCN(C(=O)N(C)C)CC2)C(=O)O1 (mixture of isomers) [Example 5.11, 4-((RS)-5-(((2R,3R,4S,5R,6R)-5-hydroxy-6-(hydroxymethyl)-3-methoxy-4-(4-(3,4,5-trifluorophenyl)-1H-1,2,3-triazol-1-yl)tetrahydro-2H-pyran-2-yl)methyl)-2-oxooxazolidin-3-yl)-N,N-dimethylpiperidine-1-carboxamide] |
| 42100 | 630 | CO[C@@H]1[C@@H](n2cc(-c3cc(F)c(F)c(F)c3)nn2)[C@@H](O)[C@@H](CO)O[C@@H]1CC1CN(CC2CCN(C(=O)OC(C)(C)C)CC2)C(=O)O1 (mixture of isomers) [Example 5.16, tert-butyl 4-(((RS)-5-(((2R,3R,4S,5R,6R)-5-hydroxy-6-(hydroxymethyl)-3-methoxy-4-(4-(3,4,5-trifluorophenyl)-1H-1,2,3-triazol-1-yl)tetrahydro-2H-pyran-2-yl)methyl)-2-oxooxazolidin-3-yl)methyl)piperidine-1-carboxylate] |
| 9070 | 190 | CO[C@@H]1[C@@H](n2cc(-c3cc(F)c(F)c(F)c3)nn2)[C@@H](O)[C@@H](CO)O[C@@H]1CC1CN(C2CCOCC2)C(=O)O1 (mixture of isomers) [Example 5.17, (RS)-5-(((2R,3R,4S,5R,6R)-5-hydroxy-6-(hydroxymethyl)-3-methoxy-4-(4-(3,4,5-trifluorophenyl)-1H-1,2,3-triazol-1-yl)tetrahydro-2H-pyran-2-yl)methyl)-3-(tetrahydro-2H-pyran-4-yl)oxazolidin-2-one] |

From patent US12319672B2, “Alpha-D-galactopyranoside derivatives” (Idorsia Pharmaceuticals Ltd, priority 2019, dated 2025)
